pIC50: −log10 of the molar value.
Assays:
Assay type in all cases: cell-based
[1] = target: T1, full-length TIPARP (Homo sapiens, UniProt Q7Z3E1); assay: NanoBRET probe displacement assay (Probe A) in live 293T cells, full-length TIPARP; details: NanoBRET displacement of Probe A, NanoLuc-tagged full-length TIPARP in live 293T cells
T1 construct: 1-657 of; expressed in transfected cells; host or cells: 293T cells (ATCC), pcDNA3.1
T1 sequence (Q7Z3E1 1-657): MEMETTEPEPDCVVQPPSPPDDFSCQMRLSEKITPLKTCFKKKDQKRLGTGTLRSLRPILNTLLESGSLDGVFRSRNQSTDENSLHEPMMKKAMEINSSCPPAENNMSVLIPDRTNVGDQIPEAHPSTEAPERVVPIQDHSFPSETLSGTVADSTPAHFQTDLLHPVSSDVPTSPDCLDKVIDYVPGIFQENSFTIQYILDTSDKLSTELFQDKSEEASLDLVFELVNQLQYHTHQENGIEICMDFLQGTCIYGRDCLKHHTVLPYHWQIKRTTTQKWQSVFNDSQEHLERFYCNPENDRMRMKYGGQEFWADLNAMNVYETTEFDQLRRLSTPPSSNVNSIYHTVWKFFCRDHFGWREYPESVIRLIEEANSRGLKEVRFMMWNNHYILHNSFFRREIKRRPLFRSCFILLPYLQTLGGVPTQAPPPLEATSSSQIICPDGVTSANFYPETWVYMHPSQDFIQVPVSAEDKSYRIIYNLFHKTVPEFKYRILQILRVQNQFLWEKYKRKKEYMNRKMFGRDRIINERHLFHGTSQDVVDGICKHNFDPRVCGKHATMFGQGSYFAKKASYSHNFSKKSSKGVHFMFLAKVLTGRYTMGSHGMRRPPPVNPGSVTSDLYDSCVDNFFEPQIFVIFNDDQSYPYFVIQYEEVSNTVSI
Experimental: (§1) MonoPARP genes from Table 5 were cloned into the pcDNA3.1-mammalian expression vector as a NanoLuc fusion with NanoLuc on the N- or C-terminus as indicated. The sequence of the NanoLuc tag is as follows: [table] Displacement of a fluorescently-labeled compound Probe A binding to NanoLuc-tagged monoPARP enzymes was measured in live cells using a bioluminescence resonance energy transfer (NanoBRET) assay. TIPARP, PARP10, PARP12 or PARP14 fused to a NanoLuc tag were overexpressed in 293T cells (ATCC) using the plasmids described herein. Plasmid DNA and empty vector DNA were added to phenol red free OptiMEM (Thermo Fisher) as shown in Table 6 in a total volume of 2.456 mL. 157 μL of Fugene HD (Promega) was added to the DNA mixture and allowed to incubate 5 min at 25° C. [table] Next, 2.375 mL of the plasmid-Fugene mixture were added to 20 million 293T cells in DMEM (Thermo Fisher) supplemented with 10% FBS (VWR). The transfection was incubated for 24 h at 37° C. in an incubator containing air supplemented with 5% CO2. The cells were resuspended in phenol red free OptiMEM media. 40 μL of cells were then added to white polystyrene 384-well non-binding surface microplate (Corning). […] Filtered luminescence was measured on an Envision (Perkin Elmer) equipped with a dual 585 nm mirror, 460±40 nm bandpass filter (donor) and 610±50 nm longpass filter (acceptor). […]

[2] = target: T2, catalytic domain TIPARP (Homo sapiens, UniProt Q7Z3E1); assay: NanoBRET probe displacement assay (Probe A) in live 293T cells, catalytic domain TIPARP; details: NanoBRET displacement of Probe A, NanoLuc-tagged catalytic domain TIPARP in live 293T cells
T2 construct: 456-657 of; expressed in transfected cells; host or cells: 293T cells (ATCC), pcDNA3.1
T2 sequence (Q7Z3E1 456-657): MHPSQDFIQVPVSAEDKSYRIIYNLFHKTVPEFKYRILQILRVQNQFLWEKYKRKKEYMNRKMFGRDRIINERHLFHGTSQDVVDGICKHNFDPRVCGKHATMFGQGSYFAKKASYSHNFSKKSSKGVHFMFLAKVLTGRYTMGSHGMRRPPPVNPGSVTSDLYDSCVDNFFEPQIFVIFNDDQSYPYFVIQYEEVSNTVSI
Experimental: as §1

[3] = target: T3, PARP12 (Homo sapiens, UniProt Q9H0J9); assay: NanoBRET probe displacement assay (Probe A) in live 293T cells, PARP12; parameters: 489-684 of; expressed in transfected cells; host or cells: 293T cells (ATCC), pcDNA3.1; details: NanoBRET displacement of Probe A, NanoLuc-tagged PARP12 in live 293T cells
T3 sequence (Q9H0J9 489-684): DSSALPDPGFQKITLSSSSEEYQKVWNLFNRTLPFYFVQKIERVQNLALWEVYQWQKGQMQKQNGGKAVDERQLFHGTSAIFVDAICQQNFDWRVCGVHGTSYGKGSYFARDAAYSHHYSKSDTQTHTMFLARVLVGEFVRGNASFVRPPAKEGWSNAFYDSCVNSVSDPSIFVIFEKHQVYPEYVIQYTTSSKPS
Experimental: as §1

[4] = target: T4, PARP10 (Homo sapiens, UniProt Q53GL7); assay: NanoBRET probe displacement assay (Probe A) in live 293T cells, PARP10; details: NanoBRET displacement of Probe A, NanoLuc-tagged PARP10 in live 293T cells
T4 sequence (Q53GL7 808-1025): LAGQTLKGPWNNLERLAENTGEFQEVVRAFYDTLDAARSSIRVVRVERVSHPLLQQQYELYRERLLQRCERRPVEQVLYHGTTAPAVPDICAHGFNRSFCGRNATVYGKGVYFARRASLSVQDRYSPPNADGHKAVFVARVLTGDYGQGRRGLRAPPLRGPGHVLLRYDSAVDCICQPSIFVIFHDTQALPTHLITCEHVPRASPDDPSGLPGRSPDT
Experimental: as §1

N#Cc1ccc(N2CCN(C(=O)c3cccc(OC[C@@H]4c5ccccc5CN4c4cn[nH]c(=O)c4C(F)(F)F)c3)CC2)nc1 [Compound B, 6-[4-[(3-[[(1S)-2-[6-Oxo-5-(trifluoromethyl)-1,6-dihydropyridazin-4-yl]-2,3-dihydro-1H-isoindol-1-yl]methoxy]phenyl)carbonyl]piperazin-1-yl]pyridine-3-carbonitrile]
pIC50 [1]: 8.40 | pIC50 [2]: 8.15 | pIC50 [3]: 6.77

CC(=O)N1CCC(Oc2ccc3c(n2)CN(c2cn[nH]c(=O)c2C(F)(F)F)C3)CC1 [Compound C, 5-[2-[(1-Acetylpiperidin-4-yl)oxy]-5H,6H,7H-pyrrolo[3,4-b]pyridin-6-yl]-4-(trifluoromethyl)-2,3-dihydropyridazin-3-one]
pIC50 [4]: 8.40
